Test results published in paper PMC5071873, “The Effects of Puerarin on Rat Ventricular Myocytes and the Potential Mechanism” (Scientific Reports, 2016).

Columns and labels:
Type in all cases: cell-based
Kir2.1 = target: T1, Kir2.1 (Homo sapiens, UniProt P63252); experiment: Whole-cell patch clamp of Kir2.1 currents (ramp voltage protocol) in transfected HEK293 cells
T1 construct: expressed in transfected cells; host or cells: HEK293
T1 sequence (P63252 1-427): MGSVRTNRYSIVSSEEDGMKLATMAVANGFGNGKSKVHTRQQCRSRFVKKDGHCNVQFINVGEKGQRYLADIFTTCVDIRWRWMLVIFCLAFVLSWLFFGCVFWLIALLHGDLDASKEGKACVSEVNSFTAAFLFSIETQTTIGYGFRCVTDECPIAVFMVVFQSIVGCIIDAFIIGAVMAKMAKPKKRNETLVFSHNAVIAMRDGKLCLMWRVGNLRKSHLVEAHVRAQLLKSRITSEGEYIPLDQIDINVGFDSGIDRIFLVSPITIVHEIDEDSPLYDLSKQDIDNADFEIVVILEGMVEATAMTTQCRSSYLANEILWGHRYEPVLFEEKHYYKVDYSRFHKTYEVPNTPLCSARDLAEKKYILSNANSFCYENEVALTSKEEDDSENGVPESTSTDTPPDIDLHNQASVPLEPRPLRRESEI
Experimental: (§1) The Tyrode’s solution contained (mM): 126 NaCl, 5.4 KCl, 1.8 CaCl2, 1 MgCl2, 0.33 NaH2PO4, 10 HEPES and 10 glucose, pH 7.4 (adjusted with NaOH). The Ca^2+-free Tyrode’s solution was prepared by removing CaCl2 from the Tyrode’s solution. The Kreb’s solution used for cell storage contained (mM): 70 glutamic acid, 30 KCl, 15 taurine, 0.5 MgCl2, 10 KH2PO4, 0.5 EGTA, 10 HEPES, 10 glucose, and 1% albumin, pH 7.4 (adjusted with KOH). The enzyme solution used for the rat cardiomyocyte isolation contained 0.08 g/L collagenase (type II) and 1.0 g/L BSA in Kreb’s solution. For action potential recording on cardiomyocyte, the pipette solution contained (mM): 100 potassium aspartate, 30 KCl, 1 MgCl2, 5 Mg-ATP, 5 EGTA, 5 HEPES, pH 7.3 (adjusted with KOH); the Tyrode’s solution was used as the standard bath solution. For whole-cell recording of IKs on myocytes, the pipette solution contained (mM): 125 potassium aspartate, 20 KCl, 1 MgCl2, 5 Mg-ATP, 10 EGTA, 5 HEPES, pH 7.3 (adjusted with KOH); the bath solution contained (mM): 132 NaCl, 4 KCl, 1.8 CaCl2, 1.2 MgCl2, 10 HEPES, 5 glucose, pH 7.4 (adjusted with NaOH). 3 μM nifedipine and 5 μM E-4031 were used to block the calcium current and IKr, respectively. For whole-cell recording on HEK-293 cells, the pipette solution contained (mM): 140 KCl, 2 MgCl2, 10 HEPES, 0.1 EGTA, 4 K2-ATP, pH 7.3 (adjusted with KOH); the bath solution contained (mM): 120 NaCl, 5 KCl, 1.5 CaCl2, 1 MgCl2, 10 HEPES, 10 glucose, pH 7.4 (adjusted with NaOH). For single-channel recording, the pipette solution (extracellular) contained (mM): 145 KCl, 10 HEPES, 10 glucose, pH 7.4 (adjusted with KOH); the bath solution (intracellular) contained (mM): 145 KCl, 1.2 MgCl2, 10 HEPES, 0.1 EGTA, pH 7.38 (adjusted with KOH).
Cell suspensions were transferred into a chamber on the stage of a Nikon Eclipse Ti inverted microscope (Tokyo, Japan). The whole-cell recordings were performed using isolated single ventricular myocytes. Patch electrodes were pulled from a horizontal microelectrode puller (P-1000, Sutter Instrument Co, USA) and fire polished to final tip resistance of 4.0–8.0 MΩ when filled with internal solutions. Signals were amplified with an Axopatch 200B amplifier (Axon Instruments, USA) and filtered at 1 kHz. The pCLAMP 9.0 software was used to generate current and voltage clamp protocols, acquire data, and analyse the current traces. The whole-cell series resistance was compensated to more than 80%. All of the experiments were performed at room temperature (22 ± 1 °C). The whole-cell IK1 was elicited by a ramp voltage protocol from −140 to + 40 mV in 1 s, or at a 0 mV holding potential to test potentials from −140 to + 40 mV in 10 mV increments. The IK1 was calculated as the difference between the peak inward current and the holding current level. The whole-cell Kv7.1/IKs were elicited from a −30 mV holding potential to test potentials from −80 to + 40 mV in 10 mV increments.
Human Kir2.1 cDNA, Kir2.3 cDNA, Kv7.1 cDNA and KCNE1 cDNA, was cloned in Human Embryonic Kidney 293 cells, respectively. In some cases, Kv7.1 cDNA and KCNE1 cDNA were simultaneously cloned in Human Embryonic Kidney 293 cells.

intracellular cAMP = experiment: Mouse/Rat cAMP assay in rat cardiomyocytes; details: puerarin 1 mM
Experimental: cAMP levels were measured in rat cardiomyocytes using a Mouse/Rat cAMP kit (cAMP parameter assay kit, R&D Systems) according to the manufacturer’s instructions. The assay is based on the competitive binding technique. A streptavidin-coated plate is incubated with a biotinylated monoclonal antibody specific for cAMP. Following a wash to remove excess monoclonal antibody, cAMP present in a sample competes with a fixed amount of horseradish peroxidase (HRP)-labeled cAMP for sites on the monoclonal antibody. This is followed by another wash to remove excess conjugate and unbound sample. A substrate solution is added to the wells to determine the bound enzyme activity. The color development is stopped and the absorbance is read at 450 nm. The intensity of the color is inversely proportional to the concentration of cAMP in the sample. The level of cAMP in the sample was determined based on a standard curve and expressed as pmol/mg per each sample. Normalized cAMP was calculated by compared with the control group. In our study, we investigate the effect of puerarin on intracellular cAMP concentration and its effect upon the increase of cAMP induced by isoproterenol, forskolin and 8-Br-cAMP.

IKs = target: T2, IKs (Rattus norvegicus, UniProt Q9Z0N7); experiment: Whole-cell recording of IKs on rat ventricular myocytes; details: puerarin 100 μM
T2 construct: endogenous in cells; host or cells: isolated adult rat ventricular myocytes
Experimental: as §1, with “3 μM nifedipine and 5 μM E-4031 were used to block the calcium current and IKr, respectively. For whole-cell recording on HEK-293 cells, the pipette solution contained (mM): 140 KCl, 2 MgCl2, 10 HEPES, 0.1 EGTA, 4 K2-ATP, pH 7.3 (adjusted with KOH); the bath solution contained (mM): 120 NaCl, 5 KCl, 1.5 CaCl2, 1 MgCl2, 10 HEPES, 10 glucose, pH 7.4 (adjusted with NaOH). For single-channel recording, the pipette solution (extracellular) contained (mM): 145 KCl, 10 HEPES, 10 glucose, pH 7.4 (adjusted with KOH); the bath solution (intracellular) contained (mM): 145 KCl, 1.2 MgCl2, 10 HEPES, 0.1 EGTA, pH 7.38 (adjusted with KOH).” left out
Cell suspensions were transferred into a chamber on the stage of a Nikon Eclipse Ti inverted microscope (Tokyo, Japan). […] The IK1 was calculated as the difference between the peak inward current and the holding current level. […]

## O=c1c(-c2ccc(O)cc2)coc2c([C@@H]3O[C@H](CO)[C@@H](O)[C@H](O)[C@H]3O)c(O)ccc12 [Puerarin, 8-c-glucoside of daidzein]
Kir2.1; 10 μM, 1 mM (so in the source)
  effect on Kir2.1 currents at low concentrations: little effect
Kir2.1; HEK293
  saturation dosage, inhibition of Kir2.1: 50 mM
Kir2.1; HEK293, n = 5 each point
  maximal inhibitory effect upon Kir2.1: 53.11 ± 1.84%
Kir2.1; HEK293, non-linear Hill fit, n = 5 each point, read-out: IC50, inhibition of Kir2.1 currents
  IC50: 1270 µM
Kir2.1; non-linear Hill fit
  Hill coefficient, inhibition of Kir2.1: 0.990
Intracellular cAMP; rat cardiac myocytes
  effect upon the increase of cAMP induced by isoproterenol, forskolin: no effect
Intracellular cAMP; rat cardiac myocytes (text: also HEK293 transfected Kv7.1/IKs)
  effect on intracellular cAMP concentration: no effect
IKs
  effect on forskolin-activated IKs current in rat cardiac myocytes: antagonized such activation effect
